Source: patent US6579861B2, “1α-hydroxy-2-methylene-19-nor-homopregnacalciferol and its uses” (Wisconsin Alumni Research Foundation, priority 2000, dated 2003)
Entries after “also recorded” stand apart in the source; their conditions may differ.

How the values were obtained:
Sprague-Dawley rats [1] = experiment: Serum calcium (bone calcium mobilization) after chronic i.p. doses in vitamin D-deficient rats; type: in vivo, rat; details: for Serum Calcium (bone calcium mobilization): vitamin D-deficient rats, low Ca diet, average ± SE, 5 animals
Procedure: (§1) Male, weanling Sprague-Dawley rats were placed on Diet 11 (0.47% Ca) diet+AEK for 11 days, followed by Diet 11 (0.02% Ca)+AEK for 31 days. Dosing (i.p.) began 7 days prior to sacrifice. Doses were given on a daily basis, 24 hours apart. The first 10 cm of the intestine was collected for gut transport studies and serum was collected for bone Ca mobilization analysis. The results are reported in Table 1 and illustrated in the graph of FIG. 2.

[2] = test system: 24-hydroxylase (240Hase) gene promoter in ROS 17/2.8 (bone) cells; experiment: Transcriptional activity, 24-hydroxylase promoter luciferase reporter in bone cells; type: cell-based
Procedure: (§2) Transcriptional activity was measured in two different cell lines. ROS 17/2.8 (bone) or LLC (kidney) cells were stably transfected with a 24-hydroxylase (240Hase) gene promoter upstream of a luciferase reporter gene (Arbour et al, 1998). Cells were given a range of doses. Sixteen hours after dosing the cells were harvested and luciferase activities were measured using a luminometer. The EC50 of 1α-hydroxy-2-methylene-19-nor-homopregnacalciferol is about 10 times lower in bone cells than kidney cells. […] The graphs of FIGS. 5 and 6 are representative of 4 to 5 independent experiments. In FIGS. 5 and 6, RLU means relative luciferase units.

Sprague-Dawley rats [3] = experiment: Pre-dose and post-dose serum calcium (bone mobilization) after a single oral dose in rats; type: in vivo, rat; details: average of 6 rats; for Post-Dose serum calcium: about 24 h after a single 1 nmol oral dose (gavage, vegetable oil); for Pre-Dose serum calcium: baseline, about 24 h before sacrifice, before the 1 nmol oral dose
Procedure: Weanling, male Sprague-Dawley rats (6/group) were placed on a vitamin D-deficient diet for a total of 5 weeks. During the first three weeks, the animals were fed a normal calcium diet (Diet 11+0.47% Ca+AEK supplement) and the last two weeks they were fed a low calcium diet (Diet 11+0.02% Ca+AEK supplement). Approximately 24 hours prior to sacrifice, animals were tail bled and then dosed with 1 nmol of the respective compounds. The doses were delivered orally in 100 microliters of vegetable oil by gavage. Serum was collected approximately 24 hour post-dose and it, along with the pre-dose serum, were subjected to total calcium analysis using atomic absorption spectrometry.

[4] = target: T1, vitamin D pig intestinal nuclear receptor (Sus scrofa, UniProt A3RGC1); experiment: Competitive binding of [3H]-1,25-(OH)2-D3 to the porcine intestinal vitamin D receptor; details: FIG. 1, result in words
T1 construct: from tissue; host or cells: pig intestine (nuclear receptor preparation)
T1 sequence (A3RGC1 1-427): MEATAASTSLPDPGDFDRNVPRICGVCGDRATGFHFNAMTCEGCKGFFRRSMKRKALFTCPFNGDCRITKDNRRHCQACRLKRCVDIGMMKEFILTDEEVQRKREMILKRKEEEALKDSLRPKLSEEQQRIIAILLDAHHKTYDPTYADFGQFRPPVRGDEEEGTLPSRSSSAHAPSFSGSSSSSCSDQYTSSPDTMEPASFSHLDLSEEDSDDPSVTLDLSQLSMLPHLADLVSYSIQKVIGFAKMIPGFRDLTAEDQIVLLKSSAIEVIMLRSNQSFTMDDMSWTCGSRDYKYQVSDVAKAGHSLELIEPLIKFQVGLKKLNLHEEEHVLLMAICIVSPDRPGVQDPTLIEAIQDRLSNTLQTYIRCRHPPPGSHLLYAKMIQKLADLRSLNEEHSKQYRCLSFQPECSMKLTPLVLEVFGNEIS
From the text: FIG. 1 is a graph illustrating the relative activity of 1α-hydroxy-2-methylene-19-nor-homopregnacalciferol and 1α,25-dihydroxyvitamin D3 to compete for binding of [^3H]-1,25-(OH)2-D3 to the vitamin D pig intestinal nuclear receptor;
The introduction of a methylene group to the 2-position of 1α-hydroxy-19-nor-homopregnacalciferol had little or no effect on binding to the porcine intestinal vitamin D receptor, as compared to 1α,25-dihydroxyvitamin D3.
Competitive binding of the analogs to the porcine intestinal receptor was carried out by the method described by Dame et al (Biochemistry 25, 4523-4534, 1986).

[5] = test system: 24-hydroxylase (240Hase) gene promoter in LLC (kidney) cells; experiment: Transcriptional activity, 24-hydroxylase promoter luciferase reporter in kidney cells; type: cell-based; details: 16 h after dosing, FIG. 6, result in words
Procedure: as §2

HL-60 cells = experiment: Differentiation of HL-60 promyelocytes into monocytes; type: cell-based; details: FIG. 4; result in words
Procedure: FIG. 4 is a graph illustrating the percent HL-60 cell differentiation as a function of the concentration of 1α-hydroxy-2-methylene-19-nor-homopregnacalciferol and of 1α,25-dihydroxyvitamin D3;
The differentiation of HL-60 promyelocytic into monocytes was determined as described by Ostrem et al (J. Biol. Chem. 262, 14164-14171, 1987).

Sprague-Dawley rats [6] = experiment: Intestinal calcium transport after chronic i.p. doses in vitamin D-deficient rats; type: in vivo, rat; details: for Intestinal Calcium Transport (S/M): vitamin D-deficient rats, low Ca diet, average ± SE, 5 animals
Procedure: as §1

[7] = listed as 1α-hydroxy-2-methylene-19-nor-homopregnacalciferol

Row | SMILES | Serum Calcium (bone calcium mobilization) (Sprague-Dawley rats [1]; 250 pmol/day/7 days i.p.) [mg/100 ml] | Serum Calcium (bone calcium mobilization) (Sprague-Dawley rats [1]; 500 pmol/day/7 days i.p.) [mg/100 ml] | Bone calcium mobilization activity (raising serum calcium) compared to 1,25(OH)2D3 (Sprague-Dawley rats [1]; Table 1, FIG. 3 and FIG. 7, result in words) | EC50 in bone cells relative to kidney cells (times lower) ([2]; ROS 17/2.8 (bone) versus LLC (kidney) cells, luciferase reporter) | Transcriptional activity in bone cells ([2]; ROS 17/2.8 cells, 16 h after dosing, FIG. 5, result in words) | Post-Dose serum calcium (Sprague-Dawley rats [3]) [mg/dL] | Pre-Dose serum calcium (Sprague-Dawley rats [3]) [mg/dL] | Binding to the vitamin D receptor compared to 1,25-(OH)2D3 [4, 7] | Binding to the vitamin D receptor compared to 1,25-(OH)2D3 ([4]; listed as 2 MHP) | Transcriptional activity in kidney cells [5, 7] | Transcriptional activity in kidney cells ([5]; listed as 2 MHP) | HL-60 differentiation potency compared to 1,25(OH)2D3 (HL-60 cells) | Intestinal Calcium Transport (S/M) (Sprague-Dawley rats [6]; 250 pmol/day/7 days i.p.) | Intestinal Calcium Transport (S/M) (Sprague-Dawley rats [6]; 500 pmol/day/7 days i.p.) | Intestinal calcium transport activity compared to 1,25(OH)2D3 (Sprague-Dawley rats [6]; Table 1 and FIG. 2, result in words)
1 | C=C1[C@H](O)CC(=C/C=C2\CCC[C@@]3(C)C2CCC3C(C)C)C[C@H]1O (stereo partly drawn) [2MHP, 1α-hydroxy-2-methylene-19-nor-homopregnacalciferol] | 4.84 ± 0.37 | 3.96 ± 0.19 | very little bone calcium mobilization activity; also recorded: significantly less potent than 1,25(OH)2D3 | about 10 times | has transcriptional activity in bone cells; also recorded: significant transcriptional activity | 4.36 | 4.86 | bound equally well to the porcine receptor as compared to the standard 1,25-(OH)2D3 | slightly less active than 1,25(OH)2D3 | greater than or equivalent to 1,25(OH)2D3 | has transcriptional activity in kidney cells; also recorded: significant transcriptional activity | almost as potent as 1,25(OH)2D3; also recorded: only slightly less active than 1,25-(OH)2D3 | 3.22 ± 0.14 | 3.90 ± 0.38 | very little activity; also recorded: significantly less than that of 1,25-(OH)2D3
2 | C=C1/C(=C\C=C2/CCC[C@]3(C)[C@@H]([C@H](C)CCCC(C)(C)O)CC[C@@H]23)C[C@@H](O)C[C@@H]1O [1,25-(OH)2D3, 1α,25-dihydroxyvitamin D3, reference compound] | 7.40 ± 0.47 | 7.20 ± 0.33 |  |  |  | 5.42 | 4.51 |  |  |  |  |  | 5.21 ± 0.73 | 6.85 ± 0.79 | 
3 | C=C1[C@H](O)CC(=C/C=C2\CCC[C@]3(C)[C@@H]([C@@H](C)CCCC(C)(C)O)CC[C@@H]23)C[C@H]1O [2-methylene-19-nor-20(S)-1α,25-dihydroxyvitamin D3] |  |  |  |  |  | 7.33 | 4.45 |  |  |  |  |  |  |  | 
